From patent publication US10689705B2, “FGFR3 fusion gene and pharmaceutical drug targeting same” (Chugai Seiyaku Kabushiki Kaisha, priority 2012, dated 2020)

Experiments:
BFTC-905 = assay: Cell proliferation inhibition, WST-8, four days (Example 3); type: cell-based; conditions: Homo sapiens, BFTC-905, 96 h, wild-type FGFR, no fusion
Method: (§1) IC50 was calculated using the least-square method.

HT-1376 = assay: as above; type: cell-based; conditions: Homo sapiens, HT-1376, 96 h, does not express FGFR3
Method: as §1

RT112/84 = assay: as above; type: cell-based; conditions: Homo sapiens, RT112/84, 96 h, fusion polypeptide expressing
Method: as §1

RT4 = assay: as above; type: cell-based; conditions: Homo sapiens, RT-4, 96 h, fusion polypeptide expressing
Method: as §1

SW780 = assay: as above; type: cell-based; conditions: Homo sapiens, SW780, 96 h, fusion polypeptide expressing
Method: as §1

UM-UC-14 = assay: as above; type: cell-based; conditions: Homo sapiens, UMUC14, 96 h, mutated type FGFR, no fusion
Method: as §1

[1] = test system: human bladder cancer cell line RT112/84; assay: Antitumor effect in cancer-bearing nude mice (FGFR3-TACC3 fusion); type: in vivo, BALB/c nude mice; conditions: RT112/84 xenograft
Method: Nude mice were quarantined for about one week before use, and subjected to subcutaneous transplantation of about 1×10^7 RT112/84 cells in the inguinal region. When the tumor size reached about 200 mm^3, the mice were used in experiments.
Antitumor effect was determined by comparing the tumor growth during 11 days after the first day of administration (Day 10 when the first day of administration is set at Day 0) with that of the control group. Tumor growth inhibitory effect(TGI)=(1−[Average tumor growth level of treated group]/[Average tumor growth level of control group])×100(%)

[2] = test system: human bladder cancer cell line SW780; assay: Antitumor effect in cancer-bearing nude mice (FGFR3-BAIAP2L1 fusion); type: in vivo, BALB/c nude mice; conditions: SW780 xenograft
Method: Nude mice were quarantined for about one week before use, and subjected to subcutaneous transplantation of 5×10^6 SW780 cells in the inguinal region. When the tumor size reached about 200 mm^3, the mice were used in experiments. […] Antitumor effect was determined by comparing the tumor growth during 11 days after the first day of administration (Day 10 when the first day of administration is set at Day 0) with that of the control group. Tumor growth inhibitory effect(TGI)=(1−[Average tumor growth level of treated group]/[Average tumor growth level of control group])×100(%)

[3] = test system: RAT-2 cells that stably express FGFR3-BAIAP2L1; conditions: orally once daily from seven days after planting; concentration-dependent (FIG. 13)
[4] = test system: colon cancer-derived cell line HCT116; assay: cells; conditions: Homo sapiens, HCT-116, 96 h, read-out: HCT116 (CRC) IC50;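 further: proliferation measured with WST-8, IC50 derived by least-squares fitting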
[5] = test system: bladder cancer-derived cell line RT-4 which expresses an FGFR3-TACC3 fusion polypeptide; assay: tissue or blood; conditions: Homo sapiens, 96 h, read-out: RT-4 (Bladder) IC50

## Cc1nc2ccc(-n3ncc(C(=O)c4cc5ccccc5[nH]4)c3N)cc2[nH]1 [COMPOUND A]
BFTC-905
  IC50: > 10 µM
HT-1376
  IC50: > 10 µM
RT112/84
  IC50: 0.018 µM
RT4
  IC50: 0.35 µM
SW780
  IC50: 0.12 µM
UM-UC-14
  IC50: 0.11 µM
[1]; 25 mg/kg orally once a day
  TGI AFTER 11 DAYS: 61%
[1]; 50 mg/kg orally once a day
  TGI AFTER 11 DAYS: 86%
[1]; 100 mg/kg orally once a day
  TGI AFTER 11 DAYS: 125%
[2]; 25 mg/kg orally once a day
  TGI AFTER 11 DAYS: 47%
[2]; 50 mg/kg orally once a day
  TGI AFTER 11 DAYS: 79%
[2]; 100 mg/kg orally once a day
  TGI AFTER 11 DAYS: 111%
[3]
  tumor enlargement enhanced by the FGFR3-BAIAP2L1 fusion polypeptide: significantly suppressed

## COc1cc(CCc2cc(NC(=O)c3ccc(N4C[C@@H](C)N[C@@H](C)C4)cc3)[nH]n2)cc(OC)c1 [COMPOUND C, AZD-4547]
BFTC-905
  IC50: 11 µM
HT-1376
  IC50: 6.7 µM
RT112/84
  IC50: 0.017 µM
RT4
  IC50: 0.25 µM
SW780
  IC50: 0.16 µM
UM-UC-14
  IC50: 0.016 µM

## CCN1CCN(c2ccc(Nc3cc(N(C)C(=O)Nc4c(Cl)c(OC)cc(OC)c4Cl)ncn3)cc2)CC1 [COMPOUND D, BGJ-398]
BFTC-905
  IC50: > 20 µM
HT-1376
  IC50: 10 µM
RT112/84
  IC50: 0.018 µM
RT4
  IC50: 0.23 µM
SW780
  IC50: 1.1 µM
UM-UC-14
  IC50: 0.017 µM

## COc1cc2c(Oc3ccc4[nH]c(C)cc4c3F)ncnc2cc1OCCCN1CCCC1 [COMPOUND E, cediranib]
BFTC-905
  IC50: 2.5 µM
HT-1376
  IC50: 1.1 µM
RT112/84
  IC50: 0.15 µM
RT4
  IC50: 0.24 µM
SW780
  IC50: 0.53 µM
UM-UC-14
  IC50: 0.066 µM

## CN1CCN(c2ccc3nc(-c4c(N)c5c(F)cccc5[nH]c4=O)[nH]c3c2)CC1 [COMPOUND F, dovitinib]
BFTC-905
  IC50: 2.8 µM
HT-1376
  IC50: 0.62 µM
RT112/84
  IC50: 0.13 µM
RT4
  IC50: 0.25 µM
SW780
  IC50: 0.57 µM
UM-UC-14
  IC50: 0.075 µM

## Cc1nc2ccc(-n3ncc(C(=O)c4cc5ccccc5[nH]4)c3N)cc2[nH]1 [Compound 49]
[4]
  IC50: 13 µM
[5]
  IC50: 0.35 µM
